We go through 3 compounds from patent EP0738149B1 (priority 1994, dated 1995).

Data set [1] in a line: in vivo. The conditions noted are these: mouse, in vivo, ip. The procedure: (§1) Neurotoxicity of the claimed agents was also assessed in mice (i.p. administration) by the rotorod ataxia test and/or in rats (p.o. administration) by positional sense test and gait stance test. […] The term quantitating the neurotoxicity is the medial neurological toxic dose (TD50), was determined in the above tests.

Data set [2] has as its system mice. The data set is described as follows: in vivo. The procedure: as §1
Data set [3] concerns rats. Description: Maximal electroshock (MES) model in rats, p.o.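 Note: rat MES model gauging antiepileptic efficacy versus generalized and partial seizures after oral dosing.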 Type of data set: in vivo. Conditions: Rattus norvegicus, po, read-out: RATS MES 50. For orientation: Protection in the maximal electroshock model is a classic sign of anticonvulsant action.
The subject of data set [4] is Male mongolian gerbils. Description: Global brain ischemia in gerbils (CA1 pyramidal neurons). Type of data set: in vivo. The conditions noted are these: 3 injections, fraction of hippocampi protected from ischemia, 14 days post-ischemia. A digest of the protocol:
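Global ischemia induced by clamping each artery for 5 min. Compound given ip 2 min after clamp removal, then daily for the next 2 days (3 doses). CA1 pyramidal neurons counted 14 days post-ischemia in H&E-stained anterior hippocampal sections; percent protection is the fraction of hippocampi protected at the stated dose.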

Data set [5] concerns mice. The conditions noted are these: Mus musculus, ip, read-out: MICE scMet ED50, mice, i.p.; Table 16.
Data set [6] has as its target T1, MAO-A (Rattus norvegicus, UniProt P21396).
T1 sequence (P21396 1-526): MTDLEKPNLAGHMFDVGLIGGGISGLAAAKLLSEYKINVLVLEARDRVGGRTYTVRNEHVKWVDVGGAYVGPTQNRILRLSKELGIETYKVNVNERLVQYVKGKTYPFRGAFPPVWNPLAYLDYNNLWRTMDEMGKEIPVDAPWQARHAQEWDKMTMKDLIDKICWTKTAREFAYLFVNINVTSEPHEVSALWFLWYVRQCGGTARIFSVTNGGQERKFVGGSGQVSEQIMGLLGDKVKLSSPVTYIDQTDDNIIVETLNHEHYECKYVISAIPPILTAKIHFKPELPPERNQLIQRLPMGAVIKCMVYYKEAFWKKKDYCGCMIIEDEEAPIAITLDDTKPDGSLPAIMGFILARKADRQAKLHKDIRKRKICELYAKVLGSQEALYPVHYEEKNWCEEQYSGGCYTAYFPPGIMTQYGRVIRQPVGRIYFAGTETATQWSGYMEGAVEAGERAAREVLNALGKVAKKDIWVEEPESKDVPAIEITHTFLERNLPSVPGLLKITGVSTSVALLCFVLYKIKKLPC
The conditions noted are these: ex vivo brain. The source says: The brains of some rats from each experimental group in Exp. 1 (chronic treatment of 80 days) and Exp. 2 (acute treatment of 14 days) were ex vivo analyzed for MAO-A and MAO-B activity.

The test system of data set [7] is hypoxia-lesioned rats. Description: Water maze working memory test in hypoxia-lesioned rats, Experiment 3B. Type of data set: in vivo, rat. The conditions noted are these: 0.5mg/kg/day 60 days, ±SEM. The source says:
The apparatus used consists of a circular water tank 160cm in diameter filled with water to a depth of 38cm. The water was made cloudy by the addition of milk powder. A clear Plexiglass 15cm platform, supported by a movable stand rest on the bottom of the tank was submerged to a depth of 2cm from the water surface. Normally a swimming rat cannot perceive the location of the platform but it may recall it from a previous experience and training, unless it suffers from some memory impairment. The time taken to locate the platform is measured in seconds and referred to as the latency. During the experiment all orientational cues such as ceiling lights etc. remained unchanged. Longer latencies are observed with rats with some impairment to their memory.
Each rat was given two trails a day for four days, entering the pool from the same point of entry each day. The position of the platform was changed daily to one of four predetermined positions. Each rat was tested twice each day over the four days, referred to as runs 1 and 2 on sessions I-IV. Initially the rat was placed on the platform for 60 seconds. It was then removed and placed at the point of entry and allowed a maximum of 120 seconds to locate the platform (run 1). The second run for that day followed 60 seconds later (run 2). In the second run the rat is expected to find the platform much sooner, having benefitted from its earlier experience. […] The average latency of run 1 in four sessions on four different days was then related to the corresponding parameter of run 2. The smaller the ratio of […], the better the short range learning score.
Table 8. […] The data are the latencies in seconds±SEM that it took a given group to locate a submerged and invisible platform the location of which was shifted from one session to the other. The time interval between sessions was one day, and that between successive runs was 60 seconds. (n=7-8 rats per group) TABLE 8

Where two headings read alike, the source gives them in different places.

Turning to `CC(=O)N[C@@H]1CCc2ccccc21` [Example 18, (R)-N-Acetyl-1-aminoindan], the TD50 in data set [1] (MICE TD50) stood at 75 mg/kg. For the same compound, the “MICE TD50” value in data set [2] (mouse, in vivo, ip) stood at 75 mg/kg. The ED50 in data set [3] (rats, p.o., Table 15) is 14 mg/kg; in data set [5], 66 mg/kg. Besides, the “PERCENT PROTECTION” value is listed as 25.0% in data set [4] (0.1 mg/kg ip), 25.0% in data set [4] (1.0 mg/kg ip) and 66.7% in data set [4] (10.0 mg/kg ip).

With `N[C@@H]1CCc2ccccc21` [R-AI, (R)-1-aminoindan], the TD50 in data set [1] was 71 mg/kg. Also, in data set [2] (mice, i.p., Table 16), the “MICE TD50” value came to 71 mg/kg. In addition, the ED50 in data set [3] stood at 184 mg/kg. The “PERCENT PROTECTION” value in data set [4] (0.1 mg/kg ip), in data set [4] (1.0 mg/kg ip) and in data set [4] (10.0 mg/kg ip) was 25.0% in each case. The “% inhibition of MAO A acute treatment” value in data set [6] (acute treatment of 14 days) was 13%. The “% inhibition of MAO A chronic treatment” value in data set [6] (chronic treatment of 80 days) was 6%. For the same compound, the “latency to locate submerged platform” value in data set [7] (Session I Run 1) came to 50 ± 16 s; in data set [7] (Session I Run 2), 25 ± 12 s; in data set [7] (Session II Run 1), 25 ± 8 s; in data set [7] (Session II Run 2), 14 ± 3 s; in data set [7] (Session III Run 1) it was 19 ± 5 s; in data set [7] (Session III Run 2), 14 ± 3 s. For the same compound, the “latency to locate submerged platform” value in data set [7] (Session IV Run 1) came out at 15 ± 5 s; in data set [7] (Session IV Run 2) it was 6 ± 2 s.

Regarding `C#CCN(C)[C@H](C)Cc1ccccc1` [deprenyl], the “latency to locate submerged platform” value in data set [7] (Session I Run 1) amounted to 42 ± 16 s; in data set [7] (Session I Run 2), 40 ± 17 s; in data set [7] (Session II Run 1), 42 ± 18 s; in data set [7] (Session II Run 2), 35 ± 16 s; in data set [7] (Session III Run 1) it was 32 ± 15 s; in data set [7] (Session III Run 2) it was 8 ± 2 s. Further, the figures for the “latency to locate submerged platform” value in data set [7] (Session IV Run 1) and in data set [7] (Session IV Run 2) were 19 ± 6 s and 12 ± 4 s, respectively.
